{
  "source": "paper PMC12663137",
  "about": "(Nature Communications, 2025)",
  "key": {"[1]": {"biological_target": "T1, SV2AWT (Homo sapiens, UniProt Q7L0J3)", "T1 construct": "expressed in transfected cells; host or cells: HEK293 (ATCC CRL-1573), crude membranes", "assay": "Competitive displacement of 10 nM 3H-UCB-J, SV2AWT membranes (Fig. 1A)", "assay_type": "binding", "conditions": "read-out: Binding of 3H-UCB-J (%), SV2A_WT", "experimental": "(§1) Ligand binding studies were carried out using crude membranes prepared from HEK293 cells (ATCC, CRL-1573) overexpressing mVenus-SV2AWT or SV2AEM. Membranes were prepared either from transiently transfected cells or from baculovirus-infected cells as described previously. Cells were washed with DPBS (Ca^2+ and Mg^2+ free), followed by resuspending in cold SH buffer (10 mM HEPES-Tris pH 7.4, 320 mM sucrose) containing protease inhibitor cocktail (MedChemExpress) to a density of 10^7 cells/ml. This cell suspension was homogenized by passing through a bead homogenizer (Isobiotec) with 10-micron clearance bead on ice. The lysate was then centrifuged at 4000 × g for 5 min at 4 °C, and the supernatant was aliquoted, frozen in liquid nitrogen, and stored at −80 °C. The mVenus fluorescence estimated using fluorescence size-exclusion chromatography (FSEC) was used to normalize expression levels of mVenus-SV2A mutants studied as detailed previously. For all binding studies, membranes containing […] protein (estimated by BCA method) per reaction were used.\n(§2) To obtain dose-response curves of studied SV2A ligands, membranes diluted in 0.2 ml binding buffer (50 mM Tris-Cl, pH 7.4, and 2 mM MgCl2) were incubated with indicated concentrations of ligands for 30 min at 4 °C. […] The binding reaction was arrested by trapping membranes on Unifilter-GF/C 96-well filter plates (Revvity) pre-soaked with 0.1%(w/v) polyethyleneimine (PEI). Membranes were then washed four times with 0.2 ml of cold binding buffer, dried, and 40 µl of scintillation liquid was added to each well. Radioactivity was monitored in MicroBeta2 plate counter (Revvity). Estimates for IC50 were obtained from fitting the data to three-parameter dose-response curves using GraphPad Prism 10."}, "[2]": {"tested_on": "SV2A WT, W300A, W666A, D670A", "assay": "Displacement of 10 nM 3H-UCB-J by levetiracetam, binding site mutations (Fig. 2B)", "parameters": "species or system human", "conditions": "Fig. 2B", "experimental": "as §1, with “Membranes” for “Ligand binding studies were carried out using crude membranes prepared from HEK293 cells (ATCC, CRL-1573) overexpressing mVenus-SV2AWT or SV2AEM. Membranes”\nas §2"}, "[3]": {"biological_target": "T2, SV2A WT, W300A, W666A, D670A (Homo sapiens, UniProt Q7L0J3)", "T2 construct": "expressed in transfected cells; host or cells: HEK293 (ATCC CRL-1573), crude membranes", "T2 sequence (Q7L0J3 whole entry W300A/W666A/D670A)": "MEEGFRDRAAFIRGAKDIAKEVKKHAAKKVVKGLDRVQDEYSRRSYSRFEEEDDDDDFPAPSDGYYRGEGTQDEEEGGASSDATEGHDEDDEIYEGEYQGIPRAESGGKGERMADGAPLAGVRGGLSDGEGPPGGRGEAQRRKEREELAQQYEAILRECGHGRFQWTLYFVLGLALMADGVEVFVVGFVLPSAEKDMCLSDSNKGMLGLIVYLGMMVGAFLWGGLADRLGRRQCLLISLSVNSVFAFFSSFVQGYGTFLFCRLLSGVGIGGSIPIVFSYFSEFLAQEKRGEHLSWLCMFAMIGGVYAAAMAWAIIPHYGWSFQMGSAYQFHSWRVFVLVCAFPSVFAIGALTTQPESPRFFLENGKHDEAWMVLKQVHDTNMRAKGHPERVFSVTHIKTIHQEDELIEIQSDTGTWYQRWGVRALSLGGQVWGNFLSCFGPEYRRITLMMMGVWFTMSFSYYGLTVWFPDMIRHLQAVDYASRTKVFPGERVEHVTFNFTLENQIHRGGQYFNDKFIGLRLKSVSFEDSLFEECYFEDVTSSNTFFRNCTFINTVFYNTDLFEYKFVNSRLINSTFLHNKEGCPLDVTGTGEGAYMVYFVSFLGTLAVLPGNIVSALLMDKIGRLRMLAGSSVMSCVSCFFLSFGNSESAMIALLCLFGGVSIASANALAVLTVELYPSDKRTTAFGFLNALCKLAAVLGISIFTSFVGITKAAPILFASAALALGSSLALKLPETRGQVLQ", "assay": "Displacement of 10 nM 3H-UCB-J by levetiracetam, binding site mutations (Fig. 2B)", "conditions": "read-out: Binding of 3H-UCB-J (%), WT", "experimental": "as §1, with “Membranes” for “Ligand binding studies were carried out using crude membranes prepared from HEK293 cells (ATCC, CRL-1573) overexpressing mVenus-SV2AWT or SV2AEM. Membranes”\nas §2"}, "[4]": {"biological_target": "T3, SV2AEM (Homo sapiens, UniProt Q7L0J3)", "T3 construct": "expressed in transfected cells; host or cells: HEK293 (ATCC CRL-1573), crude membranes (transient transfection or baculovirus)", "T3 sequence (Q7L0J3 141-742)": "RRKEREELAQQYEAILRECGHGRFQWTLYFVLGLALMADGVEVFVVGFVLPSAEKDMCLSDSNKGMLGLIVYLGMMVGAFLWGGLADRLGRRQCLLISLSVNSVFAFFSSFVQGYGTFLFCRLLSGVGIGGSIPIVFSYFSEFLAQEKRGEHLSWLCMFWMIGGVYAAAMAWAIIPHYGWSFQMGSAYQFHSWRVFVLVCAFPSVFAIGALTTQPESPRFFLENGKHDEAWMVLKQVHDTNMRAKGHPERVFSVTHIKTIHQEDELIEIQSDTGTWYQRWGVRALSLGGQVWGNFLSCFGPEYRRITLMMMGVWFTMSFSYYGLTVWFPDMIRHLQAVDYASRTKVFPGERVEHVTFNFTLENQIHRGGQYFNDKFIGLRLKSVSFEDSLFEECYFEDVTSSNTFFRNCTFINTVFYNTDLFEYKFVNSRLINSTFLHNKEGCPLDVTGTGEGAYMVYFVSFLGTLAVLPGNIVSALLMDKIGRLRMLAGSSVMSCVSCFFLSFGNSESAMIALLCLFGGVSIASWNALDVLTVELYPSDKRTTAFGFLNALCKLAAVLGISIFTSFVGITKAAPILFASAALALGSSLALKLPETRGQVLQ", "assay": "Competitive displacement of 10 nM 3H-UCB-J, SV2AEM membranes (Fig. 1A)", "assay_type": "binding", "experimental": "as §1, §2"}, "[5]": {"biological_target": "T4, SV2A WT and mutants (Homo sapiens, UniProt Q7L0J3, C693A)", "T4 construct": "expressed in transfected cells; host or cells: HEK293 (ATCC CRL-1573), crude membranes", "T4 sequence (Q7L0J3 whole entry C693A)": "as the sequence (Q7L0J3 whole entry W300A/W666A/D670A) above, with A300W, A666W, A670D, C693A counted along it", "assay": "Relative binding of levetiracetam: 3H-UCB-J (10 nM) binding in presence of 10 µM levetiracetam (Fig. 2C)", "conditions": "C693A; 10 µM levetiracetam; SV2AWT defined as 100%", "experimental": "(§3) Data are shown as mean ± s.d.; n = 6 biological replicates. […] Data shown as mean ± s.d.; n = 6 biological replicates. D Superposition of SV2A-apo (gray) and SV2A–Lev (green), showing helix-to-loop transition and inward movement of TM1 in levetiracetam-bound state. […] Source data for (B, C) are provided as a Source data file.\nas §1"}, "[6]": {"biological_target": "T5, SV2A WT and mutants (Homo sapiens, UniProt Q7L0J3)", "T5 construct": "expressed in transfected cells; host or cells: HEK293 (ATCC CRL-1573), crude membranes", "T5 sequence (Q7L0J3 whole entry, change not shown)": "as the sequence (Q7L0J3 whole entry W300A/W666A/D670A) above, with A300W, A666W, A670D counted along it", "assay": "Relative binding of levetiracetam: 3H-UCB-J (10 nM) binding in presence of 10 µM levetiracetam (Fig. 2C)", "conditions": "WT; 10 µM levetiracetam; SV2AWT defined as 100%", "experimental": "as §3, §1"}, "[7]": {"biological_target": "T6, SV2A WT and mutants (Homo sapiens, UniProt Q7L0J3, N690A)", "T6 construct": "expressed in transfected cells; host or cells: HEK293 (ATCC CRL-1573), crude membranes", "T6 sequence (Q7L0J3 whole entry N690A)": "as the sequence (Q7L0J3 whole entry W300A/W666A/D670A) above, with A300W, A666W, A670D, N690A counted along it", "assay": "Relative binding of levetiracetam: 3H-UCB-J (10 nM) binding in presence of 10 µM levetiracetam (Fig. 2C)", "conditions": "N690A", "experimental": "as §3, §1"}},
  "note": "“And” between values parts separate entries of the source, which are not always exact repeats. Identical values can stand only once.",
  "data": [
    {"smiles": "CC[C@@H](C(N)=O)N1CCCC1=O", "note": "[levetiracetam]", "values": [
      {"measurement": "remaining activity at 300 µM", "setting": "[1]; Log [Levetiracetam] (M) -3.523", "result": 10.8, "unit": "%"},
      {"measurement": "remaining activity at 100 µM", "setting": "[1]; Log [Levetiracetam] (M) -4.000", "result": 22.8, "unit": "%"},
      {"measurement": "remaining activity at 10 µM", "setting": "[1]; Log [Levetiracetam] (M) -5.000", "result": 66.1, "unit": "%"},
      {"measurement": "remaining activity at 1 µM", "setting": "[1]; Log [Levetiracetam] (M) -6.000", "result": 95, "unit": "%"},
      {"measurement": "remaining activity at 0.1 µM", "setting": "[1]; Log [Levetiracetam] (M) -7.000", "result": 95.2, "unit": "%"},
      {"measurement": "remaining activity at 0.01 µM", "setting": "[1]; Log [Levetiracetam] (M) -8.000", "result": 92.5, "unit": "%"},
      {"measurement": "reduction of levetiracetam binding by mutating Trp300, Trp666, Asp670", "setting": "[2]", "result": "~1000", "unit": "fold"},
      {"measurement": "3H-UCB-J binding at 1000 µM", "setting": "[3]; Log [Levetiracetam] (M) -3.000", "result": 6.22, "unit": "%"},
      {"measurement": "3H-UCB-J binding at 100 µM", "setting": "[3]; Log [Levetiracetam] (M) -4.000", "result": 31.9, "unit": "%"},
      {"measurement": "3H-UCB-J binding at 3 µM", "setting": "[3]; Log [Levetiracetam] (M) -5.523", "result": 73.5, "unit": "%"},
      {"measurement": "3H-UCB-J binding at 1 µM", "setting": "[3]; Log [Levetiracetam] (M) -6.000", "result": 84.4, "unit": "%"},
      {"measurement": "IC50", "setting": "[4]", "result": 9.5, "unit": "µM"},
      {"measurement": "binding response of SV2AEM vs wild-type SV2A", "setting": "[4]; competition with 3H-UCB-J", "result": "comparable to those of wild-type SV2A"},
      {"measurement": "remaining activity at 10 µM", "setting": "[4]; read-out: Binding of 3H-UCB-J (%), SV2A_EM, Log [Levetiracetam] (M) -5.000", "result": 53.7, "unit": "%"},
      {"measurement": "Levetiracetam Binding (%)", "setting": "[5]", "result": "135.59% and 126.18% and 71.93% and 77.61% and 128.23% and 117.60%"},
      {"measurement": "Levetiracetam Binding (%)", "setting": "[6]", "result": "102.09% and 117.44% and 93.09% and 74.67% and 113.64% and 99.03%"},
      {"measurement": "effect of mutation on levetiracetam binding", "setting": "[7]", "result": "enhances levetiracetam binding"},
      {"measurement": "Levetiracetam Binding (%)", "setting": "[7]; 10 µM levetiracetam, SV2AWT defined as 100%", "result": "143.32% and 133.74% and 159.43% and 149.90% and 155.36% and 156.86%"}
    ]}
  ]
}
